Assay results published in paper PMC10829512, “Transport of metformin metabolites by guanidinium exporters of the small multidrug resistance family” (The Journal of General Physiology, 2024).
Values joined by “and” are separate entries in the source; they are usually repeats but may differ in a detail not shown here. Equal entries are not always repeated. Where two headings read alike, the source gives them in different places.

What was measured:
[1] = system: Gdx-pAmi; experiment: SSM electrophysiology of Gdx-pAmi proteoliposomes; assay type: biochemical, Aminobacter sp. MET; conditions: for Transport currents in substrate screen: 2 mM substrate; for Km: pH 7.5, mean ± SEM, read-out: Km determined using SSM electrophysiology
Method: Gdx-Clo ([Kermani et al., 2018]), Gdx-Eco ([Kermani et al., 2018]), EmrE ([Kermani et al., 2022]), and Gdx-pAmi ([Martinez-Vaz et al., 2022]) construct design and purification have been described previously. […] Proteins were overexpressed in C41(DE3). Expression was induced by the addition of 0.2 mM IPTG for 3 h. Cells were lysed and extracted with 2% n-decyl-β-D-maltoside (DM) for 2 h. After pelleting insoluble cell debris, proteins were purified using cobalt affinity resin. Wash buffer contained 25 mM Tris, pH 8.5, 150 mM NaCl, and 5 mM DM. For Gdx-pAmi, NaCl concentration was increased to 500 mM NaCl. The affinity column was washed with wash buffer, then wash buffer with 10 mM imidazole, prior to elution with wash buffer with 400 mM imidazole. For Gdx-Clo and Gdx-Eco, histidine tags were cleaved with LysC (200 ng/mg of protein; 2 h at room temperature; New England Biolabs), and for all others, histidine tags were cleaved with thrombin (1 U/mg of protein, overnight at room temperature; MilliporeSigma). Proteins were further purified using a gel filtration Superdex200 column (Cytiva) equilibrated with 100 mM NaCl, 10 mM N-2-hydroxyethylpiperazine-N′-2-ethanesulfonic acid (HEPES), pH 7.5, and 5 mM DM. Purified proteins were stored at 4°C for up to 5 days before detergent binding assays. To prepare proteoliposomes for electrophysiology assays, purified protein was mixed with E. coli polar lipid extract (10 mg/ml; Avanti Polar Lipids) solubilized with 35 mM 3-[(3-cholamidopropyl)dimethylammonio]-1-propanesulfonate (CHAPS) at a protein to lipid ratio of 40 μg SMR transporter: mg lipid (1:370 protein:lipid molar ratio) prior to detergent removal by dialysis. For preparations that included Fluc-Bpe, liposomes were reconstituted with a molar ratio of 0.3 Fluc-Bpe:1 SMRGdx: 5920 lipid (1 μg Fluc-Bpe and ∼2.5 μg SMRGdx per mg lipid). For liposome transport assays, proteoliposomes were prepared similarly, except that a 2:1 mixture of 1-palmitoyl, 2-oleoylphosphatidylethanolamine (POPE) and 1-palmitoyl, 2-oleoylphosphatidylglycerol (POPG) (10 mg/ml; Avanti Polar Lipids) was used with 0.2 μg protein/mg lipid. Proteoliposomes were stored at −80°C until use.
SSM experiments were performed using SURFE^2R N1 instrument (Nanion Technologies). Sensors were prepared with a 1,2-diphytanoyl-sn-glycero-3-phosphocholine (DPhPC) lipid monolayer according to published protocols ([Bazzone et al., 2017]). Each sensor’s capacitance and conductance were verified before use (<80 nF capacitance, <50 nS conductance) using Nanion software protocols. Proteoliposome stock was diluted 1:25 in assay buffer (100 mM KCl, 100 mM KPO4, pH 7.5) prior to adsorption to the DPhPC monolayer. For substrate screening experiments, reference substrate samples (Gdm^+ for SMRGdx, and TPA^+ for SMRQac) were checked periodically to test for the stability of the sensor; if the current amplitude of the reference compound differed by >10% on one sensor, it indicated the desorption of liposomes, and the sensor was not used for further experiments. For every SSM electrophysiology experiment, we used the same general solution exchange protocol: after 2 s perfusion with a non-activating solution, we perfused substrate-containing buffer for 2 s and then returned to the equilibrium condition with a 4 s perfusion of non-activating buffer. For experiments with the S104C/A70C crosslinked variant, reducing conditions were established by the addition of 2.5 mM tris(2-carboxyethyl)phosphine (TCEP) to the activating and non-activating buffers.
We screened a series of metformin metabolites for transport using SSM electrophysiology (Fig. 2, A and B).

[2] = biological target: T1, Gdx-Clo (Clostridiales bacterium oral taxon 876, UniProt U2EQ00); experiment: Pyranine stoichiometry assay in proteoliposomes; assay type: biochemical, Clostridales oral taxon 876; conditions: 10-fold substrate gradient, equilibrium at −60 mV
T1 sequence (U2EQ00 1-105): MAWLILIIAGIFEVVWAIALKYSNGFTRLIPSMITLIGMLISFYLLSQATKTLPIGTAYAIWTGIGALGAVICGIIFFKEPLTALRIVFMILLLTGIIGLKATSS
Method: Unilamellar liposomes were formed by extrusion through a 400-nm membrane filter and the external pyranine was removed by passing liposomes through a Sephadex G-50 column spin column equilibrated in an internal buffer with substrate. The external assay buffers contained 25 mM HEPES, pH 7.53, 0.4 mM substrate, and varying KCl concentration (3–46 mM) to establish the membrane potential, with NaCl to bring the total salt concentration to 200 mM. Proteoliposomes were diluted 200-fold into the external buffer, and after ∼30 s to establish a baseline, valinomycin (final concentration 0.2 ng/ml) was added together with the substrate (final concentration 4 mM). Fluorescence spectra were monitored (λex = 455 nm; λem = 515 nm) for ∼300 s. The membrane potential was calculated using the Nernst potential for K^+: ψcalc=RT/Fln[K^+]out/[K^+]in. (1)
Fluorescence emission time courses were corrected for baseline drift measured prior to substrate and valinomycin addition. The stoichiometry was determined from the voltage at which electrochemical equilibrium occurred (no change in fluorescence over time) using the following equation: Erev=(n/m−n*RT/Fln[substrate^+]in/[substrate^+]out), (2) where n and m represent the stoichiometric coefficients of substrate and protons, respectively. […]

SMILES | Transport currents in substrate screen [1] | Km [1] | Turnover rate of Gdm+ relative to guanylurea ([1]; substrate at fivefold Km, normalized to Fluc-Bpe fluoride current and reconstitution efficiency) | Proton coupling stoichiometry [2] | Km ([1]; listed as guanylurea) [mM]
N=C(N)N [Gdm^+, guanidinium] | negative capacitive currents | 16 mM and 15.7 mM | comparable | 2 H^+: 1 solute | –
N=C(N)NC(N)=O [Guanylurea, guanylurea] | negative capacitive currents | 5.2 ± 2 mM | – | 2 H^+: 1 solute | 5
